Measured values taken from ChEMBL document CHEMBL5705887, “Distinct concentration-dependent effects of the polo-like kinase 1-specific inhibitor GSK461364A, including differential effect on apoptosis” (Cancer Res, 2009).
Activity calls are given as the source filed them. The calls are words filed in the database; no cut-off is given here.

What was measured:
HT-29 = assay: Antiproliferative activity against human HT-29 cells assessed as growth inhibition incubated for 72 hrs by celltiter-glo assay; assay type: functional
U-87 MG = assay: Antiproliferative activity against human U-87 MG cells assessed as viable cell signal at maximum growth inhibition incubated for 72 hrs by celltiter-glo assay relative to control; assay type: functional, U-87MG ATCC
[1] = biological target: Testis-specific serine/threonine-protein kinase 1 (Homo sapiens) (UniProt Q9BXA7); assay: Inhibition of full length his6-tagged recombinant human TSSK1 expressed in baculovirus Sf21 insect cells at 10 uM relative to control
Chain of Testis-specific serine/threonine-protein kinase 1 (Homo sapiens) (Q9BXA7 whole entry): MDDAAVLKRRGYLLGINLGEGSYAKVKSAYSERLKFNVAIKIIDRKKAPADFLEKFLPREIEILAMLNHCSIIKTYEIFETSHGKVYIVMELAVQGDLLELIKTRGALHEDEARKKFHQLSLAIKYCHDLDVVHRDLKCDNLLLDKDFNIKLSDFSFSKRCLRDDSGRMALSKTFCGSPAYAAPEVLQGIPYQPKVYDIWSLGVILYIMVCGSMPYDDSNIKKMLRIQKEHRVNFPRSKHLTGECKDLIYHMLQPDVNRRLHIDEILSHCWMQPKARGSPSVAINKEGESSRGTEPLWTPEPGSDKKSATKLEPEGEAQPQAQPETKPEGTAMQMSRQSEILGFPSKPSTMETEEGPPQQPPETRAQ

A704 = assay: Antiproliferative activity against human A704 cells assessed as growth inhibition incubated for 72 hrs by celltiter-glo assay; assay type: functional
NCI-H157 = assay: Antiproliferative activity against human NCI-H157 cells assessed as viable cell signal at maximum growth inhibition incubated for 72 hrs by celltiter-glo assay relative to control; assay type: functional
Panc 02.03 = assay: Antiproliferative activity against human Panc 02.03 cells assessed as of viable cell signal at minimum maximum cell growth incubated for 72 hrs by celltiter-glo assay relative to control; assay type: functional
PANC-1 [2] = assay: Antiproliferative activity against human PANC-1 cells assessed as viable cell signal at maximum growth inhibition incubated for 72 hrs by celltiter-glo assay relative to control; assay type: functional
SK-MEL3 = assay: Antiproliferative activity against human SK-MEL3 cells assessed as viable cell signal at maximum growth inhibition incubated for 72 hrs by celltiter-glo assay relative to control; assay type: functional
COLO 205 [3] = assay: Antitumor activity against human COLO 205 cells xenografted in Nude mouse assessed as increase in pIk1 level at 50 to 100 mg/kg, ip measured at 24 to 48 hrs by immunohistochemistry analysis; assay type: functional, organism-based; conditions: dose 50-100 mg/kg, time 24-48 hrs
U2OS [4] = assay: Induction of mitotic arrest in human U2OS cells expressing fused cyclin B1-GFP at 10 to 250 nmol/L incubated for 24 hrs by image based analysis; assay type: functional, cell-based; conditions: dose 10-250 nmol/L
[5] = biological target: Ribosomal protein S6 kinase alpha-1 (Homo sapiens) (UniProt Q15418); assay: Inhibition of N-terminal his6-tagged recombinant human RSK1 (2 to end residues) expressed in baculovirus Sf21 insect cells at 10 uM relative to control
Chain of Ribosomal protein S6 kinase alpha-1 (Homo sapiens) (Q15418 whole entry): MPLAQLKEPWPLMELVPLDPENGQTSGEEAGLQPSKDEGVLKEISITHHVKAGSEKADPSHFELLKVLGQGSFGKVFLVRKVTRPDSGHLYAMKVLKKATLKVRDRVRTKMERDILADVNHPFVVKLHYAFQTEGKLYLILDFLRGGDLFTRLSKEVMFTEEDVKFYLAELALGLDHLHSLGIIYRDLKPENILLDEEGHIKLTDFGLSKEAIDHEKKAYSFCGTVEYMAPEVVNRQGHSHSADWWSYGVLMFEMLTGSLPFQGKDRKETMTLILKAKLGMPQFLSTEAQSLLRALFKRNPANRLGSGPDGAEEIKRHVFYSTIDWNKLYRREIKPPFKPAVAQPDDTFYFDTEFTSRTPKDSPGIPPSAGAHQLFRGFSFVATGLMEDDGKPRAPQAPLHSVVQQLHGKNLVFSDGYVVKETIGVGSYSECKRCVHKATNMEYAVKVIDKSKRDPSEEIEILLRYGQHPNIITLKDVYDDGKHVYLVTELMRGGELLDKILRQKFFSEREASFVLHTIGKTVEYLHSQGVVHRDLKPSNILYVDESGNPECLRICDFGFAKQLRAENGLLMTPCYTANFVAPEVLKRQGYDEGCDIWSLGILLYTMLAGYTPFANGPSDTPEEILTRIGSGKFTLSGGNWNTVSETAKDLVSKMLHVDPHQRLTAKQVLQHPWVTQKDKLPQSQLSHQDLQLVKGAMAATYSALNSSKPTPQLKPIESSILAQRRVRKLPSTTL

NCI-H1155 = assay: Antiproliferative activity against human NCI-H1155 cells assessed as of viable cell signal at minimum maximum cell growth incubated for 72 hrs by celltiter-glo assay relative to control; assay type: functional
[6] = biological target: Ribosomal protein S6 kinase alpha-1 (Rattus norvegicus) (UniProt Q63531); assay: Inhibition of recombinant rat RSK1 at 10 uM relative to control
Chain of Ribosomal protein S6 kinase alpha-1 (Rattus norvegicus) (Q63531 whole entry): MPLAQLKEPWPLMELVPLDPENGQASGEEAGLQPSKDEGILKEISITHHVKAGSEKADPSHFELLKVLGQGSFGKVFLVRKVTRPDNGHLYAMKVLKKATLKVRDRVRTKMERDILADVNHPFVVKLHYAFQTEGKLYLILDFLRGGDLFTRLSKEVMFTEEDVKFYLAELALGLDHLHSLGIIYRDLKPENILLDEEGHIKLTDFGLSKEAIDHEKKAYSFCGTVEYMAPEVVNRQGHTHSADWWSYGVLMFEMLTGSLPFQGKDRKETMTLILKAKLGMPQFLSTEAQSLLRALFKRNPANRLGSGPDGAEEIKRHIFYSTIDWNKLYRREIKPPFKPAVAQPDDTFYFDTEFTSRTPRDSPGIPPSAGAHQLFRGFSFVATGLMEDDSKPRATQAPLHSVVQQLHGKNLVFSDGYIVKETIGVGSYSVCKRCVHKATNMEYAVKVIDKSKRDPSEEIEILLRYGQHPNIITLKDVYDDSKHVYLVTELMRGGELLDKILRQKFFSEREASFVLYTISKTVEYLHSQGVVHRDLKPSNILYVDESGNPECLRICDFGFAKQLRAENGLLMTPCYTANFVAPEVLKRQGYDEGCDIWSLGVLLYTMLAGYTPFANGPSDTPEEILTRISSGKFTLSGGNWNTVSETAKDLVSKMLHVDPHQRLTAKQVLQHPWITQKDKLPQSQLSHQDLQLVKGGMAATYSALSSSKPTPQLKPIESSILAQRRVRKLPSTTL

OVCAR-3 [7] = assay: Antiproliferative activity against human OVCAR-3 cells assessed as viable cell signal at maximum growth inhibition incubated for 72 hrs by celltiter-glo assay relative to control; assay type: functional
[8] = biological target: Calcium/calmodulin-dependent protein kinase type II subunit beta (Homo sapiens) (UniProt Q13554); assay: Inhibition of recombinant human CaMKII-beta at 10 uM relative to control
Chain of Calcium/calmodulin-dependent protein kinase type II subunit beta (Homo sapiens) (Q13554 whole entry): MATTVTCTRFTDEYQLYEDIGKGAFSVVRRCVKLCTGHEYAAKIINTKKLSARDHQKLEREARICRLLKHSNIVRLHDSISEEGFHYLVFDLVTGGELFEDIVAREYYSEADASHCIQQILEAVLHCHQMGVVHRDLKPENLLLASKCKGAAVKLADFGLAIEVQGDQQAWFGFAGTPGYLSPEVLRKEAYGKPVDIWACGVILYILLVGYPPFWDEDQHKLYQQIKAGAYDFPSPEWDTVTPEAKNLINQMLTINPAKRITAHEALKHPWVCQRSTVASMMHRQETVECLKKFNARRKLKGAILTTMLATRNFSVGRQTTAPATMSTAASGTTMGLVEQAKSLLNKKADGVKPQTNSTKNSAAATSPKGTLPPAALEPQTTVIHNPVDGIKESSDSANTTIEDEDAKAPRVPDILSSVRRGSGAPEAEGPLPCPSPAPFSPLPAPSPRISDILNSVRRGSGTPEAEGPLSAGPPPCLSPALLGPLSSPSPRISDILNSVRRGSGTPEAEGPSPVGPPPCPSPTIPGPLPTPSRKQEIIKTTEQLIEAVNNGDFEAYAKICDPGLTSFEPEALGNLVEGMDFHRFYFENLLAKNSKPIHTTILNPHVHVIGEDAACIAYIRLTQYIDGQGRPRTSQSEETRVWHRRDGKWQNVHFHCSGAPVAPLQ

BT-549 = assay: Antiproliferative activity against human BT-549 cells assessed as of viable cell signal at minimum maximum cell growth incubated for 72 hrs by celltiter-glo assay relative to control; assay type: functional
NCI-H358 = assay: Antiproliferative activity against human NCI-H358 cells assessed as viable cell signal at maximum growth inhibition incubated for 72 hrs by celltiter-glo assay relative to control; assay type: functional
[9] = Antiproliferative activity against human A375P cells assessed as of viable cell signal at minimum maximum cell growth incubated for 72 hrs by celltiter-glo assay relative to control; assay type: functional
COLO 205 [10] = assay: Antitumor activity against human COLO 205 cells xenografted in Nude mouse assessed as tumor growth delay time at 50 mg/kg, ip administered for 12 days; assay type: functional; conditions: time 12 day
COLO 205 [11] = assay: Antitumor activity against human COLO 205 cells xenografted in Nude mouse assessed as tumor regression at 50 mg/kg, ip administered one dose every 2 day repeated for 12 days; assay type: functional, organism-based; conditions: time 12.0 day
MDA-MB-453 = assay: Antiproliferative activity against human MDA-MB-453 cells assessed as of viable cell signal at minimum maximum cell growth incubated for 72 hrs by celltiter-glo assay relative to control; assay type: functional
HCT-116 [12] = assay: Antiproliferative activity against human HCT-116 cells assessed as of viable cell signal at minimum maximum cell growth incubated for 72 hrs by celltiter-glo assay relative to control; assay type: functional
MDA-MB-231 = assay: Antiproliferative activity against human MDA-MB-231 cells assessed as of viable cell signal at minimum maximum cell growth incubated for 72 hrs by celltiter-glo assay relative to control; assay type: functional
LoVo = assay: Antiproliferative activity against human LoVo cells assessed as viable cell signal at maximum growth inhibition incubated for 72 hrs by celltiter-glo assay relative to control; assay type: functional
HT-1080 = assay: Antiproliferative activity against human HT-1080 cells assessed as growth inhibition incubated for 72 hrs by celltiter-glo assay; assay type: functional
Hep 3B2 = assay: Antiproliferative activity against human Hep3B cells assessed as of viable cell signal at minimum maximum cell growth incubated for 72 hrs by celltiter-glo assay relative to control; assay type: functional
MIA PaCa-2 = assay: Antiproliferative activity against human MIA PaCa-2 cells assessed as growth inhibition incubated for 72 hrs by celltiter-glo assay; assay type: functional
LNCaP [13] = assay: Antiproliferative activity against human LNCaP cells assessed as viable cell signal at maximum growth inhibition incubated for 72 hrs by celltiter-glo assay relative to control; assay type: functional
COLO 205 [14] = assay: Antitumor activity against human COLO 205 cells xenografted in Nude mouse assessed as increase in pHH3 level at 50 mg/kg, ip measured at 24 hrs by immunohistochemistry analysis; assay type: functional, organism-based
THP-1 = assay: Antiproliferative activity against human THP-1 cells assessed as growth inhibition incubated for 72 hrs by celltiter-glo assay; assay type: functional
T-24 = assay: Antiproliferative activity against human T24 cells assessed as of viable cell signal at minimum maximum cell growth incubated for 72 hrs by celltiter-glo assay relative to control; assay type: functional
OVCAR-3 [15] = assay: Antiproliferative activity against human OVCAR-3 cells assessed as growth inhibition incubated for 72 hrs by celltiter-glo assay; assay type: functional
HCT-116 [16] = assay: Antiproliferative activity against human HCT-116 cells assessed as growth inhibition incubated for 72 hrs by celltiter-glo assay; assay type: functional
LNCaP [17] = assay: Antiproliferative activity against human LNCaP cells assessed as of viable cell signal at minimum maximum cell growth incubated for 72 hrs by celltiter-glo assay relative to control; assay type: functional
U2OS [18] = assay: Antiproliferative activity against human U2OS cells assessed as of viable cell signal at minimum maximum cell growth incubated for 72 hrs by celltiter-glo assay relative to control; assay type: functional
A549 = assay: Antiproliferative activity against human A549 cells assessed as growth inhibition incubated for 72 hrs by celltiter-glo assay; assay type: functional
SW480 = assay: Antiproliferative activity against human SW480 cells assessed as of viable cell signal at minimum maximum cell growth incubated for 72 hrs by celltiter-glo assay relative to control; assay type: functional
SAOS-2 = assay: Antiproliferative activity against human SAOS-2 cells assessed as of viable cell signal at minimum maximum cell growth incubated for 72 hrs by celltiter-glo assay relative to control; assay type: functional
PANC-1 [19] = assay: Antiproliferative activity against human PANC-1 cells assessed as of viable cell signal at minimum maximum cell growth incubated for 72 hrs by celltiter-glo assay relative to control; assay type: functional

**Q.** Which GI50 (HT-29) does the source give for `C[C@@H](Oc1cc(-n2cnc3ccc(CN4CCN(C)CC4)cc32)sc1C(N)=O)c1ccccc1C(F)(F)F` [GSK-461364] here?
**A.** The GI50 was 8.1 nM.

**Q.** What about the Emax (U-87 MG) of the same compound?
**A.** The Emax was 632%.

**Q.** And the inhibition [1]?
**A.** The inhibition was 61%.

**Q.** What about the GI50 (A704) of the same compound?
**A.** Its GI50 is 183 nM.

**Q.** What about the Emax (NCI-H157) of the same compound?
**A.** Its Emax is 847%.

**Q.** And the Emin (Panc 02.03)?
**A.** The Emin was 192%.

**Q.** What about the Emax (PANC-1 [2]) of the same compound?
**A.** The Emax was 530%.

**Q.** And the Emax (SK-MEL3)?
**A.** Its Emax is 708%.

**Q.** What about the Activity (COLO 205 [3]) of the same compound?
**A.** Its Activity is “Active”.

**Q.** What about the Activity (U2OS [4]) of the same compound?
**A.** The Activity was “inactive”.

**Q.** What about the inhibition [5] of the same compound?
**A.** The inhibition was 72%.

**Q.** And the Emin (NCI-H1155)?
**A.** The Emin was 119.2%.

**Q.** What about the inhibition [6] of the same compound?
**A.** Its inhibition is 87%.

**Q.** What about the Emax (OVCAR-3 [7]) of the same compound?
**A.** The Emax was 496%.

**Q.** What about the inhibition [8] of the same compound?
**A.** Its inhibition is 56%.

**Q.** What about the Emin (BT-549) of the same compound?
**A.** Its Emin is 77.2%.

**Q.** And the Emax (NCI-H358)?
**A.** The Emax was 308%.

**Q.** And the Emin [9]?
**A.** Its Emin is 220.5%.

**Q.** What about the Time (COLO 205 [10]) of the same compound?
**A.** Its Time is 62 days.

**Q.** And the Activity (COLO 205 [11])?
**A.** Its Activity is “Active”.

**Q.** And the Emin (MDA-MB-453)?
**A.** Its Emin is 179.6%.

**Q.** What about the Emin (HCT-116 [12]) of the same compound?
**A.** The Emin was 157.3%.

**Q.** What about the Emin (MDA-MB-231) of the same compound?
**A.** The Emin was 37%.

**Q.** And the Emax (LoVo)?
**A.** Its Emax is 400%.

**Q.** And the GI50 (HT-1080)?
**A.** The GI50 was 24.6 nM.

**Q.** And the Emin (Hep 3B2)?
**A.** The Emin was 132.1%.

**Q.** What about the GI50 (MIA PaCa-2) of the same compound?
**A.** The GI50 was 39.9 nM.

**Q.** And the Emax (LNCaP [13])?
**A.** The Emax was 470%.

**Q.** What about the Activity (COLO 205 [14]) of the same compound?
**A.** Its Activity is “Active”.

**Q.** And the GI50 (THP-1)?
**A.** The GI50 was 11.8 nM.

**Q.** What about the Emin (T-24) of the same compound?
**A.** Its Emin is 109%.

**Q.** And the GI50 (OVCAR-3 [15])?
**A.** The GI50 was 12.9 nM.

**Q.** And the GI50 (HCT-116 [16])?
**A.** Its GI50 is 50.5 nM.

**Q.** What about the Emin (LNCaP [17]) of the same compound?
**A.** The Emin was 99.3%.

**Q.** And the Emin (U2OS [18])?
**A.** Its Emin is 170.6%.

**Q.** And the GI50 (A549)?
**A.** Its GI50 is 34 nM.

**Q.** What about the Emin (SW480) of the same compound?
**A.** Its Emin is 114.7%.

**Q.** What about the Emin (SAOS-2) of the same compound?
**A.** The Emin was 83.5%.

**Q.** And the Emin (PANC-1 [19])?
**A.** The Emin was 114.1%.
